The values below come from PubChem BioAssay (NCI).

Among the test systems are SK-OV-3 ovarian; UO-31 renal; OVCAR-4 ovarian; RPMI-8226 leukemia; SF-268 CNS; UACC-257 melanoma; 786-0 renal; CAKI-1 renal; RXF 393 renal; OVCAR-5 ovarian; KM12 colon; XF 498 CNS; SF-295 CNS; CCRF-CEM leukemia; MOLT-4 leukemia; K-562 leukemia; HCT-116 colon; HS 578T breast; DU-145 prostate; NCI/ADR-RES ovarian.
What all share (assay): DTP human tumour cell line panel, 48 h

Molecules are shown by their SMILES.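 Values below derive from 48-hour exposures of cells grown in 96-well plates, with endpoints linearly interpolated between the two concentrations bracketing the appropriate inhibition level. TGI is the concentration that stops growth completely.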 Bounds are passed on as bounds.

In the case of `COc1ccc(C=C(c2ccc(OCc3ccccc3)cc2)c2ccc(OCc3ccccc3)cc2)cc1`, the total growth inhibition concentration (TGI) in the assay with SK-OV-3 ovarian, in the assay on UO-31 renal, with OVCAR-4 ovarian, in the assay with RPMI-8226 leukemia, with SF-268 CNS and with UACC-257 melanoma was > 100 µM each time. The total growth inhibition concentration (TGI) in the assay on 786-0 renal, with CAKI-1 renal, in the assay on RXF 393 renal, in the assay with OVCAR-5 ovarian, with KM12 colon and with XF 498 CNS was > 100 µM in each case. Also, the TGI in the assay with SF-295 CNS is > 100 µM.
As to `CN1Cc2cc3c(cc2-c2ccccc21)OCO3`, the TGI in the assay with UO-31 renal, in the assay on OVCAR-4 ovarian, in the assay on RPMI-8226 leukemia, in the assay on CCRF-CEM leukemia, in the assay with SF-268 CNS and in the assay on UACC-257 melanoma was > 100 µM throughout. Besides, the concentration for total growth inhibition (TGI) with 786-0 renal, in the assay on MOLT-4 leukemia, in the assay on K-562 leukemia, in the assay with RXF 393 renal, in the assay on OVCAR-5 ovarian and in the assay with HCT-116 colon was > 100 µM throughout. Moreover, the TGI in the assay on KM12 colon, in the assay with XF 498 CNS and in the assay with SF-295 CNS was > 100 µM throughout.
Regarding `COc1ccccc1/C=C1\CCC(CCN2CCOCC2)C1=O` (centres undefined), the concentration for total growth inhibition (TGI) in the assay with UO-31 renal, in the assay on OVCAR-4 ovarian, with RPMI-8226 leukemia, with CCRF-CEM leukemia, in the assay on SF-268 CNS and in the assay with UACC-257 melanoma was > 100 µM throughout. Besides, the TGI with 786-0 renal, with CAKI-1 renal, in the assay with MOLT-4 leukemia, in the assay on K-562 leukemia, in the assay on RXF 393 renal and in the assay on OVCAR-5 ovarian was > 100 µM each time. The TGI in the assay with HCT-116 colon, in the assay on KM12 colon, in the assay on XF 498 CNS and with SF-295 CNS was > 100 µM throughout.
Regarding `Cc1nc2c(o1)C(=O)c1ccccc1C2=Nc1ccc(N2CCOCC2)cc1`, the TGI in the assay with SK-OV-3 ovarian is > 100 µM; with UO-31 renal, 10.2 µM; in the assay with HS 578T breast, 12.5 µM; in the assay on OVCAR-4 ovarian it was 12.4 µM; with RPMI-8226 leukemia, 25.5 µM; with CCRF-CEM leukemia, > 36.8 µM. The concentration for total growth inhibition (TGI) turned out to be 23.6 µM in the assay on SF-268 CNS; 4.64 µM in the assay with UACC-257 melanoma; 61 µM in the assay on 786-0 renal; 42.7 µM in the assay with CAKI-1 renal; 31.5 µM in the assay on MOLT-4 leukemia; 7.81 µM in the assay on DU-145 prostate. The total growth inhibition concentration (TGI) is 11.6 µM in the assay with K-562 leukemia; > 29.6 µM with NCI/ADR-RES ovarian; 2.97 µM in the assay on RXF 393 renal; 33.6 µM in the assay with OVCAR-5 ovarian; 13.6 µM with HCT-116 colon; 66.8 µM in the assay on KM12 colon. In the assay with SF-295 CNS, this compound displayed a TGI of 5.98 µM.
As for `CN(C)CCCCN1c2ccccc2Sc2ccc(C(=O)c3ccccc3)cc21`, the total growth inhibition concentration (TGI) in the assay on SK-OV-3 ovarian was 27.2 µM; with UO-31 renal, 10 µM; in the assay with HS 578T breast, 9.69 µM; with OVCAR-4 ovarian it was 10.8 µM; in the assay with RPMI-8226 leukemia, > 100 µM; in the assay on CCRF-CEM leukemia it was 6.61 µM. Besides, the TGI was determined as 17.7 µM in the assay on SF-268 CNS; 3.76 µM in the assay on UACC-257 melanoma; 4.83 µM in the assay with 786-0 renal; 5.32 µM in the assay with CAKI-1 renal; 6.31 µM in the assay on MOLT-4 leukemia; 10.7 µM in the assay on DU-145 prostate. Moreover, the TGI with K-562 leukemia is 3.36 µM; in the assay on NCI/ADR-RES ovarian it was 11.1 µM; with RXF 393 renal, 4.17 µM; with OVCAR-5 ovarian, 13.8 µM; with HCT-116 colon, 4.9 µM; in the assay with KM12 colon, 4.99 µM. The compound also returned a TGI in the assay with SF-295 CNS of 4.82 µM.
With `Cc1ccc2[nH]c3c(c2c1)C1CCC(C(C)(C)C)CC1C1C(=O)N(c2ccc4c(c2)OCO4)C(=O)C31` (centres undefined), the TGI in the assay on SK-OV-3 ovarian stood at 6.86 µM; with UO-31 renal it was 7.28 µM; in the assay with HS 578T breast, 3.53 µM; in the assay on OVCAR-4 ovarian it was 3.62 µM; in the assay on RPMI-8226 leukemia, 14.7 µM; with CCRF-CEM leukemia, 3.81 µM. Besides, the concentration for total growth inhibition (TGI) with SF-268 CNS was 5.04 µM; with UACC-257 melanoma it was 23.7 µM; in the assay with 786-0 renal it was 3 µM; with CAKI-1 renal, 5.54 µM; in the assay on MOLT-4 leukemia, 4.25 µM; in the assay with DU-145 prostate it was 9.88 µM. In addition, the TGI was 9.62 µM in the assay with K-562 leukemia; 10.2 µM in the assay with NCI/ADR-RES ovarian; 4.11 µM in the assay with RXF 393 renal; 13.6 µM with OVCAR-5 ovarian; 6.36 µM in the assay with HCT-116 colon; 19 µM in the assay on KM12 colon. Also, in the assay on SF-295 CNS, the TGI came out at 9.85 µM.
Regarding `Cc1nc2ccccc2c(=O)n1NC(=S)Nc1ccc(Cl)cc1[N+](=O)[O-]`, the TGI in the assay with SK-OV-3 ovarian, in the assay on UO-31 renal, in the assay with HS 578T breast, in the assay on OVCAR-4 ovarian, in the assay on RPMI-8226 leukemia and in the assay with CCRF-CEM leukemia was > 100 µM in each case. Also, the concentration for total growth inhibition (TGI) in the assay with SF-268 CNS, in the assay on UACC-257 melanoma, with 786-0 renal, in the assay with CAKI-1 renal, in the assay on MOLT-4 leukemia and in the assay with DU-145 prostate was > 100 µM in each case. The TGI in the assay on K-562 leukemia, in the assay with NCI/ADR-RES ovarian, in the assay on RXF 393 renal, in the assay with OVCAR-5 ovarian, in the assay with HCT-116 colon and in the assay with KM12 colon was > 100 µM throughout. The total growth inhibition concentration (TGI) with SF-295 CNS is > 100 µM.
As to `Cn1c2c3ccc(Cl)cc3nc-2c(Cl)c2ccccc21`, the total growth inhibition concentration (TGI) in the assay with SK-OV-3 ovarian is > 100 µM; with UO-31 renal, 32.6 µM; with HS 578T breast, > 100 µM; in the assay on OVCAR-4 ovarian it was 35.5 µM; with RPMI-8226 leukemia it was > 100 µM; in the assay on CCRF-CEM leukemia, > 100 µM. Further, the TGI in the assay with SF-268 CNS was 36.3 µM; in the assay on UACC-257 melanoma, 37.4 µM; in the assay on 786-0 renal it was 33.9 µM; with CAKI-1 renal, 32.1 µM; with MOLT-4 leukemia, > 100 µM; in the assay with DU-145 prostate it was 33.4 µM. Besides, the TGI was > 100 µM in the assay on K-562 leukemia; 69.2 µM in the assay on NCI/ADR-RES ovarian; 36.9 µM with RXF 393 renal; 38.6 µM in the assay with OVCAR-5 ovarian; 4.99 µM in the assay with HCT-116 colon; 53.9 µM in the assay on KM12 colon. In the assay on SF-295 CNS, this compound came in with a TGI of 36.6 µM.
